Assay results: patent US8685924B2, “Preventives/remedies for stress urinary incontinence and method of screening the same” (Takeda Pharmaceutical Company Limited, priority 2004, dated 2014)
“And” between values parts separate entries of the source, which are not always exact repeats. Identical values can stand only once.

How the values were obtained:
[1] = system: urethane-anesthetized female rats; experiment: Leak point pressure by abdominal wall-electrically stimulating method, serotonin 5-HT receptor agonists (Example 3); format: in vivo, rat; settings: for leak point pressure after drug administration / leak point pressure increase / leak point pressure before drug administration: i.v., mean ± SEM; for leak point pressure before drug administration: baseline; for effect on leak point pressure: intravenous administration
Description: SD female rats (body weight 180-350 g) were anesthetized with urethane (Wako Pure Chemical Industries, Ltd.), and the spinal cord was transected at T8-9 level to eliminate the reflex voiding. In addition, the nerve to the iliococcygeus muscle/pubococcygeus muscle on the one side was transected. During operation, halothane (Takeda Pharmaceutical Company Limited) anesthesia was added when necessary. A catheter (PE-90, Clay Adams) was inserted into the bladder and secured with a ligature, and the incised part of each of the abdominal muscle and skin was closed with sutures. The abdominal skin near the diaphragm was incised at two left and right positions to newly expose the abdominal muscle. An Evans Blue dye (Merck) solution was injected into the bladder, and the bladder volume was adjusted to 0.2-0.3 ml. The bladder catheter was connected to a pressure transducer, and the signals of the transducer were sent to a computer via an amplifier (blood pressure amplification unit AP-641G; NIHON KOHDEN) and an analog-to-digital converter (BIOPAC; MP100), and recorded on a hard disc. The data were analyzed on a computer using software (BIOPAC; AcqKnowledge). The exposed abdominal muscle was electrostimulated using an electrostimulator (SEN-3301; NIHON KODEN) and an isolator (SS-202J; NIHON KODEN), and the presence or absence of incontinence from the meatus urethra was observed. The electrostimulation was applied at a voltage of 2.5-50 V, duration of 0.5 milisec, and frequency 50 Hz for 1 sec, thereby gradually increasing the intravesical pressure. The peak intravesical pressure during stimulation of the abdominal wall was measured and, of the trials with observed incontinence, the lowest peak intravesical pressure was defined as the leak point pressure. Serotonin 5-HT receptor agonist, WAY-161503 (5-HT2C receptor agonist), WAY-163909 (5-HT2C receptor agonist), DOI (5-HT2A/2B/2C receptor agonist), mCPP (5-HT2B/2C receptor partial agonist), eltoprazine (5-HT1A/1B/2C receptor partial agonist), 8-OH-DPAT (5-HT1A receptor agonist), sumatryptan (5-HT1B/1D receptor agonist) and BW723C86 (5-HT2B receptor agonist) were intravenously administered, and the leak point pressure was compared before and after the administration. DOI, mCPP and eltoprazine were dissolved in saline, and other drugs were dissolved in DMA/PEG400 (1:1), and they were intravenously administered at 1 ml/kg and 0.5 mg/kg, respectively. Depending on the experiment, RS-102221 (serotonin 5-HT2C receptor antagonist) or SB221284 (serotonin 5-HT2B/2C receptor antagonist) was intravenously administered 5 min before WAY-161503 or WAY-163909 administration, and an antagonistic effect against the WAY-161503 or WAY-163909-induced increment of the leak point pressure was examined. RS-102221 and SB221284 were both dissolved in DMA/PEG400 (1:1) and intravenously administered at 0.5 ml/kg.

[2] = system: urethane-anesthetized female rats; experiment: Leak point pressure by direct compressing of the bladder (Example 4); format: in vivo, rat; settings: for leak point pressure after drug administration / leak point pressure increase / leak point pressure before drug administration: i.v., mean ± SEM; for leak point pressure after drug administration: 20 min later; for leak point pressure before drug administration: baseline; for effect on leak point pressure: intravenous administration
Description: SD female rats (body weight 180-350 g) were anesthetized with urethane (Wako Pure Chemical Industries, Ltd.), and halothane (Takeda Pharmaceutical Company Limited) anesthesia was added when necessary during operation.
The spinal cord was transected at T8-9 level to eliminate the reflex voiding. The lower abdomen was incised in the median line, a catheter for intravesical pressure measurement (PE-90, Clay Adams) was inserted into the bladder and secured with a ligature, and the intravesical pressure was measured via a pressure transducer. Urine was emptized in advance by bilaterally pressing the bladder with two swabs, and a 0.1% Evans blue (Merck) solution (0.4 mL) was injected into the bladder. The bladder was gradually compressed bilaterally with two swabs, and the intravesical pressure upon saline leakage from the urethral orifice was measured and defined as a leak point pressure. The measurement of the leak point pressure was repeated, and the average value of the final five stable measures was taken as the value before drug administration. Thereafter, the drug was intravenously administered, the leak point pressure was measured again 20 min later, and the value after the drug administration was determined. DOI, mCPP and eltoprazine were dissolved in saline, and other drugs were dissolved in DMA/PEG400 (1:1), and intravenously administered at 1 ml/kg and 0.5 mg/kg, respectively. Depending on the experiment, RS-102221 or SB221284 (showing serotonin 5-HT2C receptor antagonist activity) was administered, 5 min later, WAY-161503 or WAY-163909 was administered, leak point pressure was measured 10 min later, and a competitive assay with the action of WAY-161503 or WAY-163909 was performed. RS-102221 and SB221284 were both dissolved in DMA/PEG400 (1:1), and intravenously administered at 0.5 ml/kg.

CC(N)Cc1c[nH]c2ccc(OCc3cccs3)cc12 (stereo not shown) [BW723C86]
leak point pressure after drug administration ([1]; 3 mg/kg): 48.9 ± 4.6 cmH2O | leak point pressure increase ([1]; 3 mg/kg): 2.5 ± 3.5 cmH2O | leak point pressure after drug administration ([1]; 10 mg/kg): 48.6 ± 3.2 cmH2O | leak point pressure increase ([1]; 10 mg/kg): −0.7 ± 3.9 cmH2O | leak point pressure before drug administration ([1]; dose group 3 mg/kg): 46.4 ± 5.6 cmH2O | leak point pressure before drug administration ([1]; dose group 10 mg/kg): 49.3 ± 6.5 cmH2O | effect on leak point pressure [1]: showed no effect

CNS(=O)(=O)Cc1ccc2[nH]cc(CCN(C)C)c2c1 [sumatryptan]
leak point pressure after drug administration ([1]; 1 mg/kg): 42.2 ± 2.0 cmH2O and 44.9 ± 9.1 cmH2O | leak point pressure after drug administration ([1]; 3 mg/kg): 54.4 ± 7.5 cmH2O | leak point pressure increase ([1]; 3 mg/kg): 1.5 ± 2.6 cmH2O | leak point pressure before drug administration ([1]; dose group 1 mg/kg): 44.2 ± 2.6 cmH2O and 43.2 ± 8.3 cmH2O | leak point pressure before drug administration ([1]; dose group 3 mg/kg): 52.9 ± 7.8 cmH2O | effect on leak point pressure [1]: showed no effect

COc1cc(CC(C)N)c(OC)cc1I (stereo not shown) [DOI]
leak point pressure after drug administration ([1]; 0.01 mg/kg): 39.7 ± 5.2 cmH2O | leak point pressure increase ([1]; 0.01 mg/kg): 3.2 ± 3.3 cmH2O | leak point pressure after drug administration ([1]; 0.03 mg/kg): 50.1 ± 7.1 cmH2O | leak point pressure increase ([1]; 0.03 mg/kg): 5.9 ± 1.9 cmH2O | leak point pressure after drug administration ([1]; 0.1 mg/kg): 63.2 ± 5.7 cmH2O | leak point pressure increase ([1]; 0.1 mg/kg): 18.7 ± 2.9 cmH2O | leak point pressure after drug administration ([1]; 0.3 mg/kg): 67.9 ± 11.5 cmH2O | leak point pressure increase ([1]; 0.3 mg/kg): 27.2 ± 3.9 cmH2O | leak point pressure before drug administration ([1]; dose group 0.01 mg/kg): 36.4 ± 7.6 cmH2O | leak point pressure before drug administration ([1]; dose group 0.03 mg/kg): 44.2 ± 7.2 cmH2O | leak point pressure before drug administration ([1]; dose group 0.1 mg/kg): 44.5 ± 5.8 cmH2O | leak point pressure before drug administration ([1]; dose group 0.3 mg/kg): 40.7 ± 8.7 cmH2O | effect on leak point pressure [1]: increased the leak point pressure significantly | leak point pressure after drug administration ([2]; 0.01 mg/kg): 68.5 ± 5.7 cmH2O | leak point pressure increase ([2]; 0.01 mg/kg): 2.9 ± 2.0 cmH2O | leak point pressure after drug administration ([2]; 0.03 mg/kg): 71.1 ± 6.7 cmH2O | leak point pressure increase ([2]; 0.03 mg/kg): 6.2 ± 2.9 cmH2O | leak point pressure after drug administration ([2]; 0.1 mg/kg): 79.5 ± 2.6 cmH2O | leak point pressure increase ([2]; 0.1 mg/kg): 14.3 ± 2.8 cmH2O | leak point pressure after drug administration ([2]; 0.3 mg/kg): 85.7 ± 6.0 cmH2O | leak point pressure increase ([2]; 0.3 mg/kg): 18.7 ± 2.9 cmH2O | leak point pressure after drug administration ([2]; 1 mg/kg): 82.9 ± 3.6 cmH2O | leak point pressure increase ([2]; 1 mg/kg): 22.6 ± 2.5 cmH2O | leak point pressure before drug administration ([2]; dose group 0.01 mg/kg): 65.7 ± 6.3 cmH2O | leak point pressure before drug administration ([2]; dose group 0.03 mg/kg): 64.9 ± 5.4 cmH2O | leak point pressure before drug administration ([2]; dose group 0.1 mg/kg): 65.2 ± 3.6 cmH2O | leak point pressure before drug administration ([2]; dose group 0.3 mg/kg): 67.0 ± 4.3 cmH2O | leak point pressure before drug administration ([2]; dose group 1 mg/kg): 60.3 ± 3.5 cmH2O | effect on leak point pressure [2]: increased the leak point pressure significantly

c1cc2c3c(c1)[C@@H]1CCC[C@@H]1N3CCNC2 [WAY-163907]
leak point pressure after drug administration ([1]; 3 mg/kg): 47.4 ± 4.8 cmH2O | leak point pressure increase ([1]; 3 mg/kg): −4.8 ± 2.6 cmH2O | leak point pressure before drug administration ([1]; dose group 3 mg/kg): 52.2 ± 3.4 cmH2O | effect on leak point pressure [1]: showed no effect | leak point pressure after drug administration ([2]; 3 mg/kg): 57.0 ± 5.1 cmH2O | leak point pressure increase ([2]; 3 mg/kg): 1.9 ± 0.5 cmH2O | leak point pressure before drug administration ([2]; dose group 3 mg/kg): 55.1 ± 4.7 cmH2O | effect on leak point pressure [2]: showed no effect

c1cc2c(c(N3CCNCC3)c1)OCCO2 [eltoprazine]
leak point pressure after drug administration ([1]; 1 mg/kg): 55.2 ± 4.5 cmH2O | leak point pressure increase ([1]; 1 mg/kg): 6.1 ± 1.7 cmH2O | leak point pressure after drug administration ([1]; 3 mg/kg): 63.2 ± 5.6 cmH2O | leak point pressure increase ([1]; 3 mg/kg): 15.8 ± 3.1 cmH2O | leak point pressure before drug administration ([1]; dose group 1 mg/kg): 49.2 ± 5.2 cmH2O | leak point pressure before drug administration ([1]; dose group 3 mg/kg): 47.4 ± 5.5 cmH2O | effect on leak point pressure [1]: increased the leak point pressure significantly | leak point pressure after drug administration ([2]; 1 mg/kg): 76.7 ± 4.7 cmH2O | leak point pressure increase ([2]; 1 mg/kg): 8.0 ± 2.8 cmH2O | leak point pressure after drug administration ([2]; 3 mg/kg): 74.6 ± 2.3 cmH2O | leak point pressure increase ([2]; 3 mg/kg): 13.5 ± 1.0 cmH2O | leak point pressure before drug administration ([2]; dose group 1 mg/kg): 68.6 ± 6.1 cmH2O | leak point pressure before drug administration ([2]; dose group 3 mg/kg): 61.1 ± 2.4 cmH2O | effect on leak point pressure [2]: increased the leak point pressure significantly

Clc1cccc(N2CCNCC2)c1 [mCPP]
leak point pressure after drug administration ([1]; 0.01 mg/kg): 49.1 ± 6.4 cmH2O | leak point pressure increase ([1]; 0.01 mg/kg): 2.8 ± 2.1 cmH2O | leak point pressure after drug administration ([1]; 0.03 mg/kg): 52.3 ± 4.3 cmH2O | leak point pressure increase ([1]; 0.03 mg/kg): 14.6 ± 2.7 cmH2O | leak point pressure after drug administration ([1]; 0.1 mg/kg): 59.7 ± 6.6 cmH2O | leak point pressure increase ([1]; 0.1 mg/kg): 13.2 ± 2.8 cmH2O | leak point pressure before drug administration ([1]; dose group 0.01 mg/kg): 46.3 ± 5.8 cmH2O | leak point pressure before drug administration ([1]; dose group 0.03 mg/kg): 37.7 ± 4.0 cmH2O | leak point pressure before drug administration ([1]; dose group 0.1 mg/kg): 46.5 ± 6.1 cmH2O | effect on leak point pressure [1]: increased the leak point pressure significantly | leak point pressure after drug administration ([2]; 0.003 mg/kg): 67.0 ± 5.3 cmH2O | leak point pressure increase ([2]; 0.003 mg/kg): 4.1 ± 2.1 cmH2O | leak point pressure after drug administration ([2]; 0.01 mg/kg): 69.3 ± 3.4 cmH2O | leak point pressure increase ([2]; 0.01 mg/kg): 6.3 ± 2.3 cmH2O | leak point pressure after drug administration ([2]; 0.03 mg/kg): 73.8 ± 7.1 cmH2O | leak point pressure increase ([2]; 0.03 mg/kg): 11.6 ± 3.1 cmH2O | leak point pressure after drug administration ([2]; 0.1 mg/kg): 76.7 ± 4.0 cmH2O | leak point pressure increase ([2]; 0.1 mg/kg): 13.6 ± 2.5 cmH2O | leak point pressure after drug administration ([2]; 0.3 mg/kg): 71.1 ± 7.1 cmH2O | leak point pressure increase ([2]; 0.3 mg/kg): 5.4 ± 2.2 cmH2O | leak point pressure before drug administration ([2]; dose group 0.003 mg/kg): 62.9 ± 5.0 cmH2O | leak point pressure before drug administration ([2]; dose group 0.01 mg/kg): 63.0 ± 2.7 cmH2O | leak point pressure before drug administration ([2]; dose group 0.03 mg/kg): 62.2 ± 4.4 cmH2O | leak point pressure before drug administration ([2]; dose group 0.1 mg/kg): 63.1 ± 3.9 cmH2O | leak point pressure before drug administration ([2]; dose group 0.3 mg/kg): 65.7 ± 7.8 cmH2O | effect on leak point pressure [2]: increased the leak point pressure significantly

CCCN(CCC)C1CCc2cccc(O)c2C1 (stereo not shown) [8OH-DPAT]
leak point pressure after drug administration ([1]; 0.3 mg/kg): 47.1 ± 9.4 cmH2O | leak point pressure increase ([1]; 0.3 mg/kg): −1.5 ± 1.2 cmH2O | leak point pressure before drug administration ([1]; dose group 0.3 mg/kg): 48.5 ± 9.6 cmH2O | effect on leak point pressure [1]: showed no effect
